The target in data set [1] is T1, Transient receptor potential cation channel subfamily M member 2 (Homo sapiens, UniProt O94759). Kind of data set: Inhibition of human TRPM2 expressed in HEK293T cells cotransfected with GFP assessed as reduction in ADPR-induced current at 10 uM by whole cell patch-clamp method relative to control. In kind it is cell-based.
Data set [2] addresses T1, Transient receptor potential cation channel subfamily M member 2. Kind of data set: Inhibition of human TRPM2 expressed in HEK293T cells cotransfected with GFP assessed as reduction in ADPR-induced current at 30 uM by whole cell patch-clamp method relative to control. It is filed as cell-based.
The target is the same in data set [3]. Description: Inhibition of human TRPM2 expressed in HEK293T cells cotransfected with GFP assessed as reduction in ADPR-induced current by whole cell patch-clamp method. In kind it is cell-based.
Data set [4] has as its target Transient receptor potential cation channel subfamily M member 8 (Rattus norvegicus) (UniProt Q8R455). Description: Inhibition of rat TRPM8 expressed in HEK293T cells cotransfected with GFP assessed as inhibition of […]-induced current at 30 uM by whole cell patch-clamp method relative to control. In kind it is cell-based.
Data set [5] concerns the target Transient receptor potential cation channel subfamily V member 1 (Homo sapiens) (UniProt Q8NER1). Kind of data set: Inhibition of TRPV1 (unknown origin) assessed as inhibition of capsaicin-induced current at 30 uM by whole cell patch-clamp method relative to control.
Data set [6] relates to SH-SY5Y. Kind of data set: Neuroprotection against H202-induced cell death in human SH-SY5Y cells assessed as increase in cell viability at 100 uM after 24 hrs by CCK8 assay. In kind it is functional, cell-based.
The subject of data set [7] is SH-SY5Y. Description: Neuroprotection against H202-induced cell death in TRPM2 knockdown human SH-SY5Y cells assessed as increase in cell viability at 100 uM after 24 hrs by CCK8 assay. It is filed as functional, cell-based.
Data set [8] relates to SH-SY5Y. Kind of data set: Cytotoxicity against human SH-SY5Y cells at 30 uM measured after 24 hrs by CCK-8 assay. In kind it is cell-based.

Each structure is given as a SMILES string. The source made the active and inactive calls. No cut-off for these calls is given here.

T1 sequence (O94759 whole entry): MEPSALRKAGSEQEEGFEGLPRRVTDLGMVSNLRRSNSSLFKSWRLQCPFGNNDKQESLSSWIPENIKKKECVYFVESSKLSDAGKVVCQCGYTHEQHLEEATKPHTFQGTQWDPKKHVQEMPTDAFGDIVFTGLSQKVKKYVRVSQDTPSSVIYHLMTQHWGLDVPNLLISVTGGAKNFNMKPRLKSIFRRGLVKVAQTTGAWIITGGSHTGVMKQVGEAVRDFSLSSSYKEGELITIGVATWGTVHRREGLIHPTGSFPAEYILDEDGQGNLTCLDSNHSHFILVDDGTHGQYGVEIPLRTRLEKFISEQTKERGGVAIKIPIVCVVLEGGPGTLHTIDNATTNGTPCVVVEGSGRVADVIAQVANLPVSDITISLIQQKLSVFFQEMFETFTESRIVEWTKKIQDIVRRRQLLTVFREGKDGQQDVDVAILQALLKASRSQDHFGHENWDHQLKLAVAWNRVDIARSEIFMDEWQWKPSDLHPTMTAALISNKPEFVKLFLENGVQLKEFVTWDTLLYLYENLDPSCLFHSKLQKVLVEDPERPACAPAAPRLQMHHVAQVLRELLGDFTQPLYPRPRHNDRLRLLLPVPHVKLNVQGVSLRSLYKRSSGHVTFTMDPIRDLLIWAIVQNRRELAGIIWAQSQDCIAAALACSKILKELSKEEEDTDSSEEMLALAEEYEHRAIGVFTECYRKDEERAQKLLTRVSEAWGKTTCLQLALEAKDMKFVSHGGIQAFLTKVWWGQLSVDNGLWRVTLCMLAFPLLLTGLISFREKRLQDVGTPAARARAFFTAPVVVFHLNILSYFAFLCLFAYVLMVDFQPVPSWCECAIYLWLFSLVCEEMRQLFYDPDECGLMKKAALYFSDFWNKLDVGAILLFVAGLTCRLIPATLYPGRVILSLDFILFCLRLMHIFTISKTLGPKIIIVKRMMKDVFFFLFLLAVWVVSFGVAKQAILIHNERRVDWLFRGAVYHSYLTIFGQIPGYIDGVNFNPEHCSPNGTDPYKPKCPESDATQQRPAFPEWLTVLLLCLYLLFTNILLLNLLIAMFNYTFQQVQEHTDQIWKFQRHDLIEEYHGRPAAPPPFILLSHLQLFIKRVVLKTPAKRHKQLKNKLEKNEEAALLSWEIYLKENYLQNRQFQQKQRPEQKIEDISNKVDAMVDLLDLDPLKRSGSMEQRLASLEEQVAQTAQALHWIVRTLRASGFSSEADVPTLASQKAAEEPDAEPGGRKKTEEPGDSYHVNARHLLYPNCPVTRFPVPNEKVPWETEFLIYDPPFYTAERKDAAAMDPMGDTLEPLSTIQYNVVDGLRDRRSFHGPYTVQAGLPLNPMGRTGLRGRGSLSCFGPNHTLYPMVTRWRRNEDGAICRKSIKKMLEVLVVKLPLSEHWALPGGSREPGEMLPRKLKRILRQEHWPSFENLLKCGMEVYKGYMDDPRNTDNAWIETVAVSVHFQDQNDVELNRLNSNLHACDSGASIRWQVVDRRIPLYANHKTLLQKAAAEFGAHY
Transient receptor potential cation channel subfamily V member 1 (Homo sapiens), sequence (Q8NER1 whole entry): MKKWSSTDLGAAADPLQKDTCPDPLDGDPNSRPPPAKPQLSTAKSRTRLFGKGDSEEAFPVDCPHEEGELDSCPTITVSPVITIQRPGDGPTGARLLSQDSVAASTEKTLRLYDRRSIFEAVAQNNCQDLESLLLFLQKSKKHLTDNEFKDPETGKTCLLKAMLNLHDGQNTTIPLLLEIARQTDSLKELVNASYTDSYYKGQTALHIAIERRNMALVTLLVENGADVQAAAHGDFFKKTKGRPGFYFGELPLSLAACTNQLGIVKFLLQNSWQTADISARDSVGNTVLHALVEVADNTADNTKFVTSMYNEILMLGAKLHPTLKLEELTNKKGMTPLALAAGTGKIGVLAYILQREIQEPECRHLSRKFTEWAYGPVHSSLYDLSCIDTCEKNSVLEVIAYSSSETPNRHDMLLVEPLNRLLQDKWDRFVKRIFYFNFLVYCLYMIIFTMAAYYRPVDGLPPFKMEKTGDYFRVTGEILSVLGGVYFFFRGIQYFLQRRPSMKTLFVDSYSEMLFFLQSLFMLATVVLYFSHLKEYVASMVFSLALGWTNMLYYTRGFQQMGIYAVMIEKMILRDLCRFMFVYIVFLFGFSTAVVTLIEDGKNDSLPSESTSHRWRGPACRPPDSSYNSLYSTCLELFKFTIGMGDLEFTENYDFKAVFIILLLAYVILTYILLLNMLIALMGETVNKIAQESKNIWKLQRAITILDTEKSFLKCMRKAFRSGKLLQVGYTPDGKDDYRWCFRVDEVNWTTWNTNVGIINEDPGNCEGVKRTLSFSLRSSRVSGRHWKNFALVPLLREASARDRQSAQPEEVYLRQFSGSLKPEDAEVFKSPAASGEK
Transient receptor potential cation channel subfamily M member 8 (Rattus norvegicus), sequence (Q8R455 whole entry, looked up): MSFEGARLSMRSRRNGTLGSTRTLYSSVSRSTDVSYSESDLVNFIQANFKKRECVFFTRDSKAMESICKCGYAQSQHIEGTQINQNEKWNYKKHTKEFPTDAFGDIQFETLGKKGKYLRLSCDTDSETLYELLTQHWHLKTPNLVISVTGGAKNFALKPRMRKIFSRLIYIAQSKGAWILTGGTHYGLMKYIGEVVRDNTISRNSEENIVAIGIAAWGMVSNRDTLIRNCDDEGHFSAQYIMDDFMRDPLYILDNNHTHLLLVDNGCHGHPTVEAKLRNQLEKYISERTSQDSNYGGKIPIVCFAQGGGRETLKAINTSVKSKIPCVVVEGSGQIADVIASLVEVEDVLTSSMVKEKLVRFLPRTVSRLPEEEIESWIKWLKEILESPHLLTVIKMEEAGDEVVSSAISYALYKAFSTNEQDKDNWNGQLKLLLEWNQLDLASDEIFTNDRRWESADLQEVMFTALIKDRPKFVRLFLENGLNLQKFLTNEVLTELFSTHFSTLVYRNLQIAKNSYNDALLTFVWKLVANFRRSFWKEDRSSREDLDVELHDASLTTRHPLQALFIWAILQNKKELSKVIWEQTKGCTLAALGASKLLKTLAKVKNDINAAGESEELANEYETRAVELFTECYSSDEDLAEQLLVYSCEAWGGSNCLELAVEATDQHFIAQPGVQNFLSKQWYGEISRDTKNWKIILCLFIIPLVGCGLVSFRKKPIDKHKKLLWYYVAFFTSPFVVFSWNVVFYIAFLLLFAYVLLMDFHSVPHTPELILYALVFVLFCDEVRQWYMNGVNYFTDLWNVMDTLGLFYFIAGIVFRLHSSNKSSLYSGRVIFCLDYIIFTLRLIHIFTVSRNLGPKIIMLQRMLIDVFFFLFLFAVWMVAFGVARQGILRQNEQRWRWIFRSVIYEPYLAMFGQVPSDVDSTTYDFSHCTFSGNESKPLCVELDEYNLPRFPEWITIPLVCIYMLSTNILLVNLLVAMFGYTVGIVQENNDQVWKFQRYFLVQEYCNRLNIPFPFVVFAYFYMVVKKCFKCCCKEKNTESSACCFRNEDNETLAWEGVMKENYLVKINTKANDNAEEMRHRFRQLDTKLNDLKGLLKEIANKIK

As to `CCN(CC)CCn1c2ccccc2n2c(C(C)=O)c(C)nc12`, the inhibition in data set [1] amounted to 50%.

`CCN(CC)CCn1c2ccccc2n2c(C(=O)c3ccc(-c4ccccc4)cc3)c(C)nc12`: the inhibition was 90% in data set [2], 26% in data set [4] and 40% in data set [5]. Further, the concentration for half-maximal inhibition (IC50) in data set [3] came to 6.2 µM. For the same molecule, the outcome in data set [6] was Active. In addition, the outcome in data set [7] was inactive. Further, the Activity result in data set [8] is given as “Non-Toxic”.

As for `CCN(CC)CCn1c2ccccc2n2c(C(=O)c3cc4ccccc4o3)c(C)nc12`, the inhibition in data set [2] came to 90%; in data set [4] it was 36%; in data set [5], 22%. Besides, the IC50 in data set [3] was 8.1 µM. Moreover, the result in data set [6] was Active. The result in data set [7] was inactive. Further, in data set [8], the Activity result is given as “Non-Toxic”.

The record behind these values is ChEMBL document CHEMBL4842361, “Design, synthesis and biological activities of benzo[d]imidazo[1,2-a]imidazole derivatives as TRPM2-specfic inhibitors” (Eur J Med Chem, 2021).
